# Values of other authors, collected in article doi:10.1101/2023.05.15.540887, “Comparative analysis of drug-like EP300/CREBBP acetyltransferase inhibitors” (bioRxiv, 2023).
# How the values were obtained:
# Parameters in all cases: method as in ref 29 (a number printed in a supplementary file, which may have a reference list of its own: not looked up in the article's list)
# [1] = system: SR; settings: Leukemia SR; highest log conc -4.0; NCI-60 screen data; cited from earlier work
# [2] = system: MDA-MB-468; settings: Breast MDA-MB-468; highest log conc -4.0; NCI-60 screen data; cited from earlier work
# [3] = system: OVCAR-3; settings: Ovarian OVCAR-3; highest log conc -4.0; NCI-60 screen data; cited from earlier work
# [4] = system: A498; settings: Renal A498; highest log conc -4.0; NCI-60 screen data; cited from earlier work
# [5] = system: HCC-2998; settings: Colon HCC-2998; highest log conc -4.0; NCI-60 screen data; cited from earlier work
# [6] = system: NCI-H460; settings: Non-SmallCellLung NCI-H460; highest log conc -4.0; NCI-60 screen data; cited from earlier work
# [7] = system: SF-268; settings: CNS SF-268; highest log conc -4.0; NCI-60 screen data; cited from earlier work
# [8] = system: HL-60(TB); settings: Leukemia HL-60(TB); highest log conc -4.0; NCI-60 screen data; cited from earlier work
# [9] = system: SK-MEL-28; settings: Melanoma SK-MEL-28; highest log conc -4.0; NCI-60 screen data; cited from earlier work
# [10] = system: RPMI-8226; settings: Leukemia RPMI-8226; highest log conc -4.0; NCI-60 screen data; cited from earlier work
# [11] = system: HCT-15; settings: Colon HCT-15; highest log conc -4.0; NCI-60 screen data; cited from earlier work
# [12] = system: COLO205; settings: Colon COLO205; highest log conc -4.0; NCI-60 screen data; cited from earlier work
# [13] = system: SK-OV-3; settings: Ovarian SK-OV-3; highest log conc -4.0; NCI-60 screen data; cited from earlier work
# [14] = system: HCT-116; settings: Colon HCT-116; highest log conc -4.0; NCI-60 screen data; cited from earlier work
# [15] = system: CAKI-1; settings: Renal CAKI-1; highest log conc -4.0; NCI-60 screen data; cited from earlier work
# [16] = system: NCI-H226; settings: Non-SmallCellLung NCI-H226; highest log conc -4.0; NCI-60 screen data; cited from earlier work
# [17] = system: BT-549; settings: Breast BT-549; highest log conc -4.0; NCI-60 screen data; cited from earlier work
# [18] = system: SN12C; settings: Renal SN12C; highest log conc -4.0; NCI-60 screen data; cited from earlier work
# [19] = system: OVCAR-4; settings: Ovarian OVCAR-4; highest log conc -4.0; NCI-60 screen data; cited from earlier work
# [20] = system: HT29; settings: Colon HT29; highest log conc -4.0; NCI-60 screen data; cited from earlier work
# [21] = system: ACHN; settings: Renal ACHN; highest log conc -4.0; NCI-60 screen data; cited from earlier work
SMILES,GI50 AVGDATA [1],GI50 AVGDATA [2],GI50 AVGDATA [3],GI50 AVGDATA [4],GI50 AVGDATA [5],GI50 AVGDATA [6],GI50 AVGDATA [7],GI50 AVGDATA [8],GI50 AVGDATA [9],GI50 AVGDATA [10],GI50 AVGDATA [11],GI50 AVGDATA [12],GI50 AVGDATA [13],GI50 AVGDATA [14],GI50 AVGDATA [15],GI50 AVGDATA [16],GI50 AVGDATA [17],GI50 AVGDATA [18],GI50 AVGDATA [19],GI50 AVGDATA [20],other results
COC(=O)N1c2ccc3c(nc(Cc4ccccc4)n3[C@H]3CCC[C@H](C(=O)O)C3)c2CC[C@@H]1C [FT-6876],-4.86,-5.42,-4.88,-4.91,-5.08,-4.63,-4.56,-5.5,-4.88,-5.42,-4.79,-5.31,-4.77,-4.75,-5.74,-4.85,-4.31,-4.76,-5.17,-5.26,GI50 AVGDATA [21]: -4.77
Cc1sc2c(c1C)C(c1ccc(Cl)cc1)=N[C@@H](CC(=O)OC(C)(C)C)c1nnc(C)n1-2 [JQ-1],-7.35,-6.95,-6.3,-7.21,-6.54,-6.22,-5.33,-7.52,-6.4,-7.4,-6.8,-6.84,-6.49,-6.51,-7.27,-4.99,-5.51,-5.71,-6.82,-7.01,GI50 AVGDATA [21]: -6.3
CO[C@H]1CC[C@H](n2c([C@@H]3CCCC(=O)N3c3ccc(F)c(F)c3)nc3cc(-c4c(C)noc4C)ccc32)CC1 [inobrodib],-6.12,-5.4,-4.98,-5.22,-5.38,-4.58,-4.83,-6.07,-4.93,-6.15,-5.33,-5.67,-5.39,-5,-6.19,-5.37,-4.99,-4.99,-6.11,-5.59,GI50 AVGDATA [21]: -5.32
